Source: ChEMBL document CHEMBL4431319, “Design and synthesis of 4'-O-alkylamino-tethered-benzylideneindolin-2-ones as potent cytotoxic and apoptosis inducing agents” (Bioorg Med Chem Lett, 2016)
pIC50: −log10 of the molar value. The source made the active and inactive calls. No cut-off for these calls is given here.

What was measured:
BT-549 = assay: Cytotoxicity against human BT549 cells after 48 hrs by MTT assay; assay type: functional, cell-based; conditions: BT-549, 48 h
MCF-10A = assay: Cytotoxicity against human MCF10A cells after 48 hrs by MTT assay; assay type: cell-based
MDA-MB-231 [1] = assay: Cytotoxicity against human MDA-MB-231 cells after 48 hrs by MTT assay; assay type: functional, cell-based; conditions: MDA-MB-231, 48 h
DU-145 = assay: Cytotoxicity against human DU145 cells after 48 hrs by MTT assay; assay type: functional, cell-based; conditions: DU-145, 48 h
A549 = assay: Cytotoxicity against human A549 cells after 48 hrs by MTT assay; assay type: functional, cell-based; conditions: A549, 48 h
MDA-MB-231 [2] = assay: Induction of cell cycle arrest in human MDA-MB-231 cells assessed as accumulation at […] at 5 uM after 24 hrs by propidium iodide staining based flow cytometry (reference value: 26.12%); assay type: functional
MDA-MB-231 [3] = assay: Induction of cell cycle arrest in human MDA-MB-231 cells assessed as accumulation at […] at 2.5 uM after 24 hrs by propidium iodide staining based flow cytometry (reference value: 26.12%); assay type: functional
MDA-MB-231 [4] = assay: Induction of cell cycle arrest in human MDA-MB-231 cells assessed as accumulation at […] at 10 uM after 24 hrs by propidium iodide staining based flow cytometry (reference value: 26.12%); assay type: functional
MDA-MB-231 [5] = assay: Induction of ROS generation in human MDA-MB-231 cells at compound IC50 after 24 hrs by DCFDA staining-based spectrofluorometric analysis relative to control; assay type: functional, cell-based
MDA-MB-231 [6] = assay: Induction of cell cycle arrest in human MDA-MB-231 cells assessed as accumulation at G0/G1 phase at 2.5 uM after 24 hrs by propidium iodide staining based flow cytometry (reference value: 55.02%); assay type: functional
MDA-MB-231 [7] = assay: Induction of cell cycle arrest in human MDA-MB-231 cells assessed as accumulation at G0/G1 phase at 10 uM after 24 hrs by propidium iodide staining based flow cytometry (reference value: 55.02%); assay type: functional
MDA-MB-231 [8] = assay: Antimigratory activity in human MDA-MB-231 cells at compound IC50 after 24 to 48 hrs by wound healing assay relative to control; assay type: functional, cell-based
MDA-MB-231 [9] = assay: Disruption of F-actin-mediated stress fiber formation around nucleus in human MDA-MB-231 cells at compound IC50 after 12 hrs by rhodamine-phalloidin/[…] staining-based confocal microscopic analysis; assay type: functional, cell-based
MDA-MB-231 [10] = assay: Induction of apoptosis in human MDA-MB-231 cells assessed as appearance of horseshoe shaped nuclei at compound IC50 after 24 hrs by […] staining-based fluorescence microscopic analysis; assay type: functional, cell-based
MDA-MB-231 [11] = assay: Induction of apoptosis in human MDA-MB-231 cells assessed as pyknosis at compound IC50 after 24 hrs by […] staining-based fluorescence microscopic analysis; assay type: functional, cell-based
MDA-MB-231 [12] = assay: Induction of cell cycle arrest in human MDA-MB-231 cells assessed as accumulation at G2/M phase at 10 uM after 24 hrs by propidium iodide staining based flow cytometry (reference value: 18.86%); assay type: functional
MDA-MB-231 [13] = assay: Disruption of mitochondrial membrane potential in human MDA-MB-231 cells at compound IC50 after 24 hrs by rhodamine 123 staining-based spectrofluorometric analysis; assay type: functional
MDA-MB-231 [14] = assay: Induction of detachment of human MDA-MB-231 cells at compound IC50 after 24 to 48 hrs by phase contrast microscopic analysis; assay type: functional, cell-based
MDA-MB-231 [15] = assay: Induction of apoptosis in human MDA-MB-231 cells assessed as chromatin condensation at compound IC50 after 24 hrs by […] staining-based fluorescence microscopic analysis; assay type: functional, cell-based
MDA-MB-231 [16] = assay: Induction of nuclear shrinkage in human MDA-MB-231 cells at IC50 after 24 to 48 hrs by phase contrast microscopic analysis; assay type: functional, cell-based
MDA-MB-231 [17] = assay: Induction of apoptosis in human MDA-MB-231 cells assessed as fragmented nuclei at compound IC50 after 24 hrs by […] staining-based fluorescence microscopic analysis; assay type: functional, cell-based
MDA-MB-231 [18] = assay: Induction of cell cycle arrest in human MDA-MB-231 cells assessed as accumulation at G2/M phase at 5 uM after 24 hrs by propidium iodide staining based flow cytometry (reference value: 18.86%); assay type: functional
MDA-MB-231 [19] = assay: Induction of cell cycle arrest in human MDA-MB-231 cells assessed as accumulation at G0/G1 phase at 5 uM after 24 hrs by propidium iodide staining based flow cytometry (reference value: 55.02%); assay type: functional
MDA-MB-231 [20] = assay: Induction of cell cycle arrest in human MDA-MB-231 cells assessed as accumulation at G2/M phase at 2.5 uM after 24 hrs by propidium iodide staining based flow cytometry (reference value: 18.86%); assay type: functional

Structure (SMILES)	pIC50 (BT-549)	pIC50 (MCF-10A)	pIC50 (MDA-MB-231 [1])	pIC50 (DU-145)	pIC50 (A549)	other results
COc1cc(/C=C2\C(=O)Nc3ccc(Cl)cc32)ccc1OCCCN1CCOCC1	5.55	< 4.00	5.60	5.54	5.26	
COc1cc(/C=C2\C(=O)Nc3ccccc32)ccc1OCCCN1CCc2ccccc21	< 4.70		< 4.70	< 4.70	< 4.70	
COc1cc(/C=C2\C(=O)Nc3ccc(Cl)cc32)ccc1OCCCN1CCN(c2ncccc2C(F)(F)F)CC1	5.82	4.38	5.90	5.79	5.02	Activity (MDA-MB-231 [2]): 11.74%; Activity (MDA-MB-231 [3]): 17.93%; Activity (MDA-MB-231 [4]): 5.81%; Activity (MDA-MB-231 [5]): Active; Activity (MDA-MB-231 [6]): 68.53%; Activity (MDA-MB-231 [7]): 84.74%; Activity (MDA-MB-231 [8]): Active; Activity (MDA-MB-231 [9]): Active; Activity (MDA-MB-231 [10]): Active; Activity (MDA-MB-231 [11]): Active; Activity (MDA-MB-231 [12]): 9.42%; Activity (MDA-MB-231 [13]): 40%; Activity (MDA-MB-231 [14]): Active; Activity (MDA-MB-231 [15]): Active; Activity (MDA-MB-231 [16]): Active; Activity (MDA-MB-231 [17]): Active; Activity (MDA-MB-231 [18]): 10.54%; Activity (MDA-MB-231 [19]): 77.62%; Activity (MDA-MB-231 [20]): 13.45%
COc1cc(/C=C2\C(=O)Nc3ccccc32)ccc1OCCCN1CCN(C)CC1	5.60	< 4.00	5.68	5.65	5.47	
COc1cc(/C=C2\C(=O)Nc3ccc(C)cc32)ccc1OCCN1CCOCC1	< 4.70	< 4.00	5.02	< 4.70	< 4.70	
COc1cc(/C=C2\C(=O)Nc3ccc(Cl)cc32)ccc1OCCCN1CC(C)OC(C)C1 (configuration not stated)	5.56	4.26	5.70	5.57	5.20	Activity (MDA-MB-231 [5]): Active; Activity (MDA-MB-231 [8]): Active; Activity (MDA-MB-231 [9]): Active; Activity (MDA-MB-231 [10]): Active; Activity (MDA-MB-231 [11]): Active; Activity (MDA-MB-231 [13]): 28%; Activity (MDA-MB-231 [14]): Active; Activity (MDA-MB-231 [15]): Active; Activity (MDA-MB-231 [16]): Active; Activity (MDA-MB-231 [17]): Active
COc1cc(/C=C2\C(=O)Nc3ccccc32)ccc1OCCCN1CC(C)OC(C)C1 (configuration not stated)	< 4.70		4.82	< 4.70	< 4.70	
COc1cc(/C=C2\C(=O)Nc3ccccc32)ccc1OCCCn1nc(C)cc1C	< 4.70		< 4.70	< 4.70	< 4.70	
COc1cc(/C=C2\C(=O)Nc3ccccc32)ccc1OCCCN1CCN(c2ccccn2)CC1	< 4.70		< 4.70	< 4.70	< 4.70	
COc1cc(/C=C2\C(=O)Nc3ccc(Cl)cc32)ccc1OCCCN1CCN(c2ccccn2)CC1	< 4.70	4.29	4.83	< 4.70	< 4.70	
COc1cc(/C=C2\C(=O)Nc3ccc(F)cc32)ccc1OCCN1CCOCC1	< 4.70		< 4.70	< 4.70	< 4.70	
COc1cc(/C=C2\C(=O)Nc3ccccc32)ccc1OCCN1CCOCC1	< 4.70		< 4.70	< 4.70	< 4.70	
COc1cc(/C=C2\C(=O)Nc3ccccc32)ccc1OCCCN1CCOCC1	< 4.70		< 4.70	< 4.70	< 4.70	
COc1cc(/C=C2\C(=O)Nc3ccccc32)ccc1OCCCN1CCN(c2ncccc2C(F)(F)F)CC1	< 4.70		< 4.70	< 4.70	< 4.70	
COc1cc(/C=C2\C(=O)Nc3ccc(Br)cc32)ccc1OCCN1CCOCC1	< 4.70		< 4.70	< 4.70	< 4.70	
COc1cc(/C=C2\C(=O)Nc3ccc(C)cc32)ccc1OCCCN1CC(C)OC(C)C1 (configuration not stated)	< 4.70		4.94	< 4.70	< 4.70	
COc1cc(/C=C2\C(=O)Nc3ccc(Cl)cc32)ccc1OCCCN1CCN(C)CC1	5.66	4.36	5.76	5.67	4.95	Activity (MDA-MB-231 [5]): Active; Activity (MDA-MB-231 [8]): Active; Activity (MDA-MB-231 [9]): Active; Activity (MDA-MB-231 [10]): Active; Activity (MDA-MB-231 [11]): Active; Activity (MDA-MB-231 [13]): 32%; Activity (MDA-MB-231 [14]): Active; Activity (MDA-MB-231 [15]): Active; Activity (MDA-MB-231 [16]): Active; Activity (MDA-MB-231 [17]): Active
COc1cc(/C=C2\C(=O)Nc3ccc(C)cc32)ccc1OCCCN1CCOCC1	< 4.70		< 4.70	< 4.70	< 4.70	
COc1cc(/C=C2\C(=O)Nc3ccc(Cl)cc32)ccc1OCCN1CCOCC1	5.45	4.21	5.48	5.35	4.83	
COc1cc(/C=C2\C(=O)Nc3ccc(C)cc32)ccc1OCCCN1CCN(c2ncccc2C(F)(F)F)CC1	< 4.70		< 4.70	< 4.70	< 4.70	
